Reference: patent US20130324522A1, “INSECT ODORANT RECEPTOR ANTAGONISTS” (THE ROCKEFELLER UNIVERSITY, priority 2010, published 2013)

Columns and labels:
[1] = test system: ab5 neuron that expresses the Or47a/Or83b receptor; assay: Single sensillum recordings of fly olfactory neurons; assay type: in vivo, Drosophila melanogaster
Description: Female flies (Drosophila melanogaster) of the w^1118 genotype were immobilized by inserting single adult flies into the wide end of a 200 μL pipette tip, and mounting this on a microscope cover glass with a piece of wax. Antennal olfactory neurons of immobilized flies were subjected to extracellular recording using a Syntech 10x AC probe connected to a Syntech IDAC4 amplifier. The recording electrode was inserted into the ab5 sensillum, which contains two olfactory sensory neurons (OSNs), and the reference electrode was placed into the eye. Action potentials in the OSNs induced by odorant stimulation were recorded. 15 μL of odorant [3-methyl-thio-1-propanol; diluted (v/v) in paraffin oil (10^−5 to 10^−3 dilution)], was applied to a filter strip, and 10 μL of test compounds, DEET, or solvent (100% ethanol) was applied on a second filter strip. Both filter strips were placed into a Pasteur glass pipette connected to the Syntech CS55 stimulus device, and applied to the fly antenna for 1 sec. Corrected spike increases were computed by subtracting the average spontaneous activity in 1 sec before odorant stimulus from the average activity during the stimulus.
The effect of selected compounds on odor-evoked action potentials was measured from the ab5 antennal sensillum, which houses the olfactory neuron that expresses the Or47a/Or83b receptor.

Aedes aegypti = assay: Mosquito two-port olfactometer behavioral assay; assay type: in vivo; details: 3.5 mg dose; female mosquitoes, human hand odor and CO2, two-port olfactometer
Description: Female Aedes aegypti Orlando mosquitoes (8-11 days old) were used in this assay. Larvae were hatched from dried egg papers and were reared in pans with deionized water supplemented with two tablets of fish food “TetraMin®” from Tetra every day. Pupae were transferred to cages and maintained before and after eclosion at 25° C. and 70-80% humidity with a 12 hr light: 12 hr dark photocycle. Adults were fed a 10% corn syrup solution and were free to mate with each other. One day prior to the assay, females were separated and placed into starvation cartridges (each containing 20 mosquitoes) without any food or water. The cartridges were placed at 25° C. and 70-80% humidity overnight (>l4hr).
A two-port olfactometer, adapted from Gouck (Gouck, H. K. Host preferences of various strains of Aedes aegypti and Aedes simpsoni as determined by an olfactometer. Bull. World Health Org. 47:680-683, 1972) was used to assess the repellent characteristic of small compounds by measuring mosquito host-seeking preference to human odor with a compound or its solvent. […] After 8 minutes, the number of mosquitoes in the trapping chambers (“attracted”) and main compartment (“not-attracted”) was counted. Data were expressed as % attracted/% activated. Significance was assessed using the analysis of variance, ANOVA. […] Significance was assessed using the Mann-Whitney U-test. […]

Drosophila melanogaster = assay: Fly two-choice behavior assay; assay type: in vivo
Description: Male flies (Drosophila melanogaster) of the w^1118 genotype were “wet-starved” for 24 hours in plastic culture vials lacking food but supplemented with wet cotton plugs on the bottom. After the 24 hour fasting period before the assay, flies were placed into a two-choice behavior chamber. This two-choice chamber consists of one 15 cm Petri dish with two round holes (2.2 cm diameter) that were punched along the midline at an equal distance (2.9 cm) from the rim. Two small plastic vials were connected to the dish and plugged with rigid cotton plugs perforated with 1 mL pipette tips. The bottom of each trap vial was humidified with the same cotton plugs used to plug the vial by soaking the plug in deionized water for a few seconds until it was fully wetted. Each trap contained a small filter paper strip with 10 μL of either water or pure odor (3-methyl-thio-1-propanol). Flies could enter one of the two traps through a plastic pipette tip (1 mL) inserted into top of each vial. 10 μL of RU-14, or solvent (100% ethanol) or DEET was placed on small circular filter paper, and introduced into the pipette tips at the entrance. […] After 24 hours, flies were counted and a response was computed by calculating the percent of flies in each trap. Significance was assessed using the Mann-Whitney U-test. […]

SMILES: O=C(C1CCCC1)N(Cc1nccn1CCc1c(F)cccc1Cl)C1CC1 [RU-I2]
- suppression of 3-methyl-thio-1-propanol (3MTP)-evoked action potentials in the ab5 neuron ([1]; 3.5 mg dose on a filter paper): inhibits responses elicited by 10^−4 to 10^−5 dilutions of 3MTP
- suppression of 3-methyl-thio-1-propanol (3MTP)-evoked action potentials in the ab5 neuron ([1]; 10 mg dose on a filter paper): inhibits responses elicited by 10^−3 to 10^−5 dilutions of 3MTP
- inhibition of host-seeking behavior (Aedes aegypti): significant inhibition

SMILES: CCN(CC)C(=O)c1cccc(C)c1 [DEET, N,N-diethyl-m-toluamide, reference compound]
- suppression of 3MTP attraction (Drosophila melanogaster; range of 1 mg to 10 mg): significant suppression

SMILES: CN(Cc1nccn1Cc1c(F)cccc1Cl)C(=O)C1CCCC1 [RU-I5]
- suppression of 3-methyl-thio-1-propanol (3MTP)-evoked action potentials in the ab5 neuron ([1]; 10 mg dose on a filter paper): inhibits responses elicited by 10^−3 to 5×10^−5 dilutions of 3MTP
- inhibition of host-seeking behavior (Aedes aegypti): significant inhibition

SMILES: Fc1cccc(Cl)c1Cn1ccnc1CN(CC1CCCC1)C1CC1 [RU-I4]
- suppression of 3MTP attraction (Drosophila melanogaster; 3.5 mg dose): significant suppression

SMILES: C=CCN(Cc1nccn1Cc1cccc(F)c1)C(=O)c1ccccc1F [RU-I1]
- suppression of 3-methyl-thio-1-propanol (3MTP)-evoked action potentials in the ab5 neuron ([1]; 3.5 mg dose on a filter paper): inhibits responses elicited by 5×10^−4 to 10^−5 dilutions of 3MTP
- suppression of 3-methyl-thio-1-propanol (3MTP)-evoked action potentials in the ab5 neuron ([1]; 10 mg dose on a filter paper): inhibits responses elicited by 10^−3 to 10^−5 dilutions of 3MTP
